For 11 molecules, TGI and GI50 results are on record in PubChem BioAssay (NCI).

Each structure is given as a SMILES string.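 Step 1: Grow cells in 96-well plates. Step 2: Expose to compound for 48 hours at 5 concentrations. Step 3: Interpolate endpoints linearly; if unreached, use highest concentration. GI50 is the concentration that inhibits growth by half. TGI: total growth inhibition.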

Some test systems named below: 786-0 renal; DU-145 prostate; HCT-15 colon; HOP-62 NSCLC; HS 578T breast; MALME-3M melanoma; OVCAR-4 ovarian; SF-539 CNS; U251 CNS; UO-31 renal.
Experiment in all cases: inhibition of tumour cell growth, NCI panel, 48 h

As to `N=Nc1c(OC(=O)Nc2ccccc2)[nH]c2ccccc12`, the TGI in the assay on 786-0 renal was 32.6 µM; with DU-145 prostate, 22.7 µM; with HCT-15 colon, greater than 100 µM; in the assay on HOP-62 NSCLC, 36.4 µM; with HS 578T breast, greater than 100 µM; in the assay on MALME-3M melanoma, 29.2 µM. The TGI came out at 30.7 µM with OVCAR-4 ovarian, 37.4 µM with SF-539 CNS, 30.8 µM in the assay with U251 CNS and 25.6 µM in the assay with UO-31 renal.

Consider `COc1cccc(C(=O)Nc2ccc(CN3CCc4nc5cc(OC)c(OC)cc5cc43)cc2)c1`, for which the GI50 in the assay on 786-0 renal is 3.02 µM; in the assay on DU-145 prostate, 4.55 µM; in the assay on HCT-15 colon it was 3.32 µM; in the assay with HOP-62 NSCLC it was 13.5 µM; in the assay on HS 578T breast, 3.87 µM; in the assay with MALME-3M melanoma, 4.91 µM. Besides, the GI50 in the assay on OVCAR-4 ovarian is 3.32 µM; with SF-539 CNS it was 5.51 µM; with U251 CNS, 3.17 µM; in the assay with UO-31 renal, 3.36 µM. In addition, the TGI with 786-0 renal turned out to be 9.71 µM; in the assay with DU-145 prostate it was 67.9 µM; in the assay on HCT-15 colon, 19.3 µM; with HOP-62 NSCLC, 37.8 µM; in the assay with HS 578T breast, 34 µM; in the assay with MALME-3M melanoma, 27.6 µM. The TGI with OVCAR-4 ovarian is greater than 100 µM; in the assay on SF-539 CNS, 23.8 µM; in the assay on U251 CNS, 12.7 µM; in the assay on UO-31 renal it was 60.1 µM.

Take `N#CC(C#N)=Cc1c(-c2ccccc2)[nH]c2ccccc12`: the GI50 was 8.55 µM in the assay with 786-0 renal; 3.2 µM in the assay with DU-145 prostate; 0.906 µM with HCT-15 colon; 11.2 µM in the assay on HOP-62 NSCLC; 2.31 µM with HS 578T breast; 15.8 µM in the assay with MALME-3M melanoma. For the same molecule, the GI50 with OVCAR-4 ovarian was 5.22 µM; with SF-539 CNS it was 2.1 µM; with U251 CNS, 1.18 µM; in the assay on UO-31 renal, 11 µM. The TGI in the assay with 786-0 renal is greater than 64.1 µM; with DU-145 prostate it was 17.9 µM; with HCT-15 colon, greater than 47.3 µM; in the assay on HOP-62 NSCLC, 55.2 µM; with HS 578T breast, 8.49 µM; in the assay with MALME-3M melanoma, greater than 100 µM. Besides, the TGI in the assay on OVCAR-4 ovarian is greater than 100 µM; with SF-539 CNS it was 9.12 µM; in the assay on U251 CNS, 28 µM; in the assay on UO-31 renal it was greater than 75.6 µM.

Turning to `CC[C@@]1(OC(=O)CN)C(=O)OCc2c1cc1n(c2=O)Cc2cc3cc4c(cc3nc2-1)OCO4`, the GI50 in the assay with 786-0 renal is less than 0.01 µM; with DU-145 prostate, less than 0.01 µM; in the assay with HCT-15 colon, 0.0291 µM; in the assay with HOP-62 NSCLC it was less than 0.01 µM; with HS 578T breast, 0.399 µM; in the assay with MALME-3M melanoma it was less than 0.01 µM. In addition, the GI50 in the assay on OVCAR-4 ovarian is 0.0988 µM; in the assay on SF-539 CNS, less than 0.01 µM; in the assay on U251 CNS it was less than 0.01 µM; with UO-31 renal it was less than 0.01 µM. Further, the TGI in the assay with 786-0 renal is 0.0367 µM; in the assay on DU-145 prostate it was less than 0.012 µM; in the assay on HCT-15 colon, greater than 100 µM; in the assay on HOP-62 NSCLC, less than 0.0495 µM; in the assay with HS 578T breast, greater than 100 µM; in the assay on MALME-3M melanoma, 0.459 µM. Moreover, the TGI with OVCAR-4 ovarian was 0.826 µM; in the assay with SF-539 CNS, less than 0.01 µM; with U251 CNS it was 0.202 µM; in the assay with UO-31 renal it was 0.111 µM.

In the case of `Oc1c(C(Nc2cccc3ccccc23)c2ccccc2)ccc2cccnc12` (stereo not given), the GI50 was 3.37 µM in the assay with 786-0 renal; 7.22 µM with DU-145 prostate; 3.78 µM in the assay on HCT-15 colon; 4.9 µM in the assay with HOP-62 NSCLC; 7.37 µM in the assay on HS 578T breast; 5.17 µM with MALME-3M melanoma. Also, the GI50 was 2.3 µM with OVCAR-4 ovarian, 4.56 µM with SF-539 CNS, 2.42 µM in the assay with U251 CNS and 1.62 µM in the assay on UO-31 renal. Moreover, the TGI is 76.3 µM with 786-0 renal; greater than 100 µM with DU-145 prostate; 62.1 µM in the assay with HCT-15 colon; greater than 100 µM in the assay with HOP-62 NSCLC; greater than 100 µM in the assay on HS 578T breast; 25.7 µM with MALME-3M melanoma. Moreover, the TGI with OVCAR-4 ovarian was greater than 100 µM; in the assay on SF-539 CNS it was 21.4 µM; in the assay with U251 CNS it was 16 µM; with UO-31 renal, 23 µM.

As for `Cc1cc(Cc2cc(C)c(O)c(C)c2)cc(C)c1O`, the GI50 is 10.4 µM in the assay with 786-0 renal; 14.6 µM in the assay with DU-145 prostate; 3.49 µM with HCT-15 colon; 7.01 µM in the assay with HOP-62 NSCLC; 2.58 µM in the assay with HS 578T breast; 9.12 µM in the assay with MALME-3M melanoma. The GI50 in the assay on OVCAR-4 ovarian was 29 µM; with SF-539 CNS, 3.25 µM; with U251 CNS, 3.68 µM; in the assay on UO-31 renal it was 7.65 µM. For the same molecule, the TGI is 40.4 µM in the assay on 786-0 renal; greater than 100 µM in the assay on DU-145 prostate; greater than 100 µM in the assay with HCT-15 colon; 89.6 µM with HOP-62 NSCLC; 12.5 µM in the assay with HS 578T breast; 59.2 µM in the assay with MALME-3M melanoma. In addition, the TGI in the assay with OVCAR-4 ovarian was greater than 100 µM; in the assay on SF-539 CNS, 14.2 µM; with U251 CNS it was 19.6 µM; in the assay with UO-31 renal, 96.6 µM.

For `COc1cc(N2CCN(C(C)C)CC2)ccc1Nc1nc(Nc2cccc3ncccc23)c2cc[nH]c2n1`, the GI50 with 786-0 renal was 5.27 µM; in the assay with DU-145 prostate, 6.55 µM; in the assay on HCT-15 colon, 4.35 µM; with HOP-62 NSCLC, 3.18 µM; with HS 578T breast, 5.42 µM; in the assay with MALME-3M melanoma, 4.52 µM. The GI50 is 7.54 µM with OVCAR-4 ovarian, 3.94 µM in the assay with SF-539 CNS, 4.54 µM in the assay on U251 CNS and 3.79 µM with UO-31 renal. The TGI was 12.4 µM in the assay on 786-0 renal; 24.6 µM in the assay on DU-145 prostate; greater than 21.6 µM in the assay with HCT-15 colon; greater than 14.9 µM with HOP-62 NSCLC; 24.3 µM in the assay with HS 578T breast; 9.64 µM with MALME-3M melanoma. For the same molecule, the TGI was greater than 25 µM in the assay with OVCAR-4 ovarian, 8.15 µM in the assay on SF-539 CNS, 15.1 µM with U251 CNS and 11.6 µM in the assay with UO-31 renal.

`CCCCN(CCCC)c1ccc(C(=N)c2ccc(N(C)C)cc2)cc1`: the GI50 in the assay on 786-0 renal is 1.1 µM; with DU-145 prostate, 1.03 µM; with HCT-15 colon, 0.665 µM; in the assay on HOP-62 NSCLC, 1.33 µM; in the assay on HS 578T breast, 1.18 µM; in the assay on MALME-3M melanoma, 0.651 µM. Further, the GI50 in the assay with OVCAR-4 ovarian is 0.375 µM; in the assay with SF-539 CNS, 1.53 µM; in the assay with U251 CNS, 0.46 µM; with UO-31 renal it was 0.0919 µM. Also, the TGI in the assay with 786-0 renal was 2.55 µM; in the assay on DU-145 prostate, 2.23 µM; with HCT-15 colon, 2.2 µM; in the assay on HOP-62 NSCLC, 2.69 µM; with HS 578T breast it was 3.28 µM; with MALME-3M melanoma it was 2.23 µM. Further, the TGI was found to be 1.46 µM in the assay with OVCAR-4 ovarian, 3.16 µM in the assay on SF-539 CNS, 1.42 µM in the assay with U251 CNS and 1.28 µM with UO-31 renal.

In the case of `CCN(CC)C(=O)CC1=C(C)/C(=C/c2[nH]c(-c3ccc[nH]3)cc2OC)N=C1C`, the GI50 with 786-0 renal is 0.549 µM; in the assay with DU-145 prostate, 0.546 µM; in the assay with HCT-15 colon, 0.278 µM; in the assay with HOP-62 NSCLC it was 0.504 µM; with HS 578T breast, 0.656 µM; in the assay with MALME-3M melanoma, 0.982 µM. In addition, the GI50 in the assay with OVCAR-4 ovarian is 0.409 µM; in the assay with SF-539 CNS, 0.498 µM; in the assay with U251 CNS, 0.449 µM; with UO-31 renal, 0.554 µM. Moreover, the TGI in the assay with 786-0 renal was 3.36 µM; in the assay with DU-145 prostate, greater than 100 µM; in the assay on HCT-15 colon it was 0.891 µM; with HOP-62 NSCLC it was 11.6 µM; with HS 578T breast it was 7.97 µM; in the assay on MALME-3M melanoma, 9.05 µM. Also, the TGI is greater than 100 µM with OVCAR-4 ovarian, 12.2 µM in the assay with SF-539 CNS, 15.5 µM in the assay on U251 CNS and 2.5 µM in the assay on UO-31 renal.

Consider `O=C(/C=C1\C(=O)N(Cc2ccc([N+](=O)[O-])cc2)c2ccccc21)c1ccc(OCCN2CCCCC2)cc1`, for which the GI50 in the assay on 786-0 renal is 1.29 µM; in the assay with DU-145 prostate, 1.56 µM; in the assay on HCT-15 colon it was 1.19 µM; in the assay with HOP-62 NSCLC, 2.12 µM; in the assay with HS 578T breast, 1.71 µM; with MALME-3M melanoma, 1.22 µM. Moreover, the GI50 was 1.47 µM with OVCAR-4 ovarian, 1.53 µM in the assay with SF-539 CNS, 1.72 µM in the assay with U251 CNS and 1.4 µM in the assay with UO-31 renal. The TGI in the assay with 786-0 renal worked out at 2.61 µM; with DU-145 prostate it was 2.93 µM; in the assay on HCT-15 colon, 2.48 µM; in the assay on HOP-62 NSCLC, 6.32 µM; in the assay with HS 578T breast it was 6.09 µM; in the assay on MALME-3M melanoma it was 2.74 µM. Further, the TGI in the assay with OVCAR-4 ovarian was determined as 2.83 µM; with SF-539 CNS, 2.89 µM; in the assay with U251 CNS, 3.09 µM; in the assay with UO-31 renal it was 2.7 µM.

Take `C=CCn1c(=O)c2cnc(Nc3ccc(N4CCN(C)CC4)cc3)nc2n1-c1ccc2c(n1)[C@@](O)(CC)CC2`: the GI50 in the assay on 786-0 renal is 0.271 µM; in the assay on DU-145 prostate it was 0.939 µM; in the assay on HCT-15 colon, 0.949 µM; with HOP-62 NSCLC, 1.29 µM; in the assay on HS 578T breast, 0.755 µM; in the assay on MALME-3M melanoma it was 0.576 µM. Further, the GI50 in the assay on OVCAR-4 ovarian is 1.89 µM; with SF-539 CNS it was 0.175 µM; in the assay on U251 CNS it was 1.11 µM; with UO-31 renal, 0.36 µM. In addition, the TGI in the assay on 786-0 renal stood at 12.2 µM; with DU-145 prostate it was 35.3 µM; with HCT-15 colon, 13.8 µM; in the assay on HOP-62 NSCLC, 13.8 µM; in the assay with HS 578T breast it was 12.4 µM; with MALME-3M melanoma it was 12 µM. The TGI with OVCAR-4 ovarian is greater than 39.9 µM; with SF-539 CNS it was 0.68 µM; in the assay on U251 CNS, 35.7 µM; with UO-31 renal it was 6.96 µM.
